This note sets out measurements from PMC6896740, “Safety, tolerability, pharmacokinetics, and pharmacodynamics of PF-06650833, a selective interleukin-1 receptor-associated kinase 4 (IRAK4) inhibitor, in single and multiple ascending dose randomized phase 1 studies in healthy subjects” (Arthritis Research & Therapy, 2019).

For this series, the system named is healthy adult subjects. The series can be described thus: Study 1 (SAD) safety and tolerability: TEAEs. Format: in vivo. The text has this:
Study 1 (B7921001; NCT02224651) was a 96-day, phase 1, within-cohort, randomized, double-blind, sponsor-open, placebo-substitution, five-period crossover, SAD study in healthy adult subjects (Fig. 1a). Subjects were sequentially enrolled into four cohorts of ten subjects each. Within each cohort, the subjects were randomized into a maximum of five periods. Within each period, eight subjects and two subjects were randomized to receive PF-06650833 and placebo, respectively. In this placebo-substitution design, all subjects within a cohort received one or more doses of PF-06650833 and/or placebo. Single oral doses of PF-06650833 IR formulations from 1 to 6000 mg, and MR formulations from 30 to 300 mg, were administered in fasted (overnight fast of ≥ 10 h) and/or fed (high-fat breakfast meal) states. Doses were escalated sequentially by period within each cohort (see Fig. 1a for final dosing scheme), based upon the evaluation of ≥ 48 h of safety and tolerability for all subjects and ≥ 8 h of PK data for at least six subjects receiving PF-06650833 and one subject receiving placebo. Dose escalation was to cease when either the limits of safety and/or tolerability were reached, the projected exposure at the subsequent dose exceeded the toxicokinetic limit (TK) established based on the no observable adverse effect level (NOAEL) in relevant animal studies, or a plateau in exposure was reached.
The effects of food on the plasma PK profile of the IR and MR formulations were explored in cohorts 1 and 3, respectively, by administering 30 mg doses of PF-06650833 in a fasted state and after a high-fat meal. A 1000-mg dose of the IR formulation was also tested in cohort 3 in an attempt to identify a maximum tolerated dose (MTD). Since TK limits were not reached with the IR formulation at doses up to 1000 mg, the IR doses were escalated to 2000 and 6000 mg with a high-fat meal in cohort 4 (Fig. 1a).
Safety assessments included incidence and severity of treatment-emergent AEs (TEAEs) and discontinuation due to TEAEs, incidence of treatment-emergent clinical laboratory abnormalities, and proportion of subjects meeting with pre-defined criteria for potential clinical concern in vital signs and electrocardiogram (ECG) parameters.
The safety analysis set was defined as all subjects who received at least one dose of study treatment, and data were summarized descriptively. The PK concentration analysis set was defined as all enrolled, treated subjects who had at least one concentration in at least one treatment period. The PK parameter analysis set was defined as all enrolled, treated subjects who had at least one of the PK parameters of interest in at least one treatment period. The PD analysis set was defined as all enrolled subjects who received at least one dose of PF-06650833 and had at least one PD parameter. PK/PD data were summarized descriptively.

Where [1] appears, read: IR 2000 mg single dose, fed (high-fat), 8 evaluable.

With `CC[C@@H]1[C@H](F)C(=O)N[C@@H]1COc1nccc2cc(C(N)=O)c(OC)cc12` [PF-06650833, 1-{[(2S,3S,4S)-3-Ethyl-4-fluoro-5-oxopyrrolidin-2-yl]methoxy}-7-methoxyisoquinoline-6-carboxamide], the “Infections and infestations: subjects with AE, all causalities (treatment-related)” value (IR 1 mg single dose, fasted, 8 evaluable) is recorded as 1 (0). Further, under setting [1], the “Infections and infestations: subjects with AE, all causalities (treatment-related)” value was 1 (0); the “Upper respiratory tract infection: subjects with AE, all causalities (treatment-related)” value is reported as 1 (0). Under “all dose groups”, the “Serious AEs or deaths” value is reported as “No serious AEs or deaths”. Moreover, under “human, in vivo”, the “Subjects with treatment-related TEAEs” value is on record as 4 and the “Total treatment-related TEAEs” value was 10. For the same compound, where the note is “in vivo”, the “Severity of TEAEs” value is recorded as “mild or moderate” and the “Treatment-related TEAEs” value is recorded as “No treatment-related TEAEs”. The Maximum tolerated dose result (single doses IR up to 6000 mg, MR up to 300 mg) is “not established”.
